Data: patent publication US20260042755A1, “GPR6 INVERSE AGONISTS” (MapLight Therapeutics, Inc., priority 2022, published 2026)
pIC50: −log10 of the molar value.

Key:
GPR3 = molecular target: T1, GPR3 (Homo sapiens, UniProt P46089); assay: GPR3 antagonist functional cAMP assay (LANCE Ultra cAMP TR-FRET, CHO cells stably expressing GPR3); type: cell-based
T1 construct: expressed in transfected cells; host or cells: CHO cells
In short: (§1)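 10,000 cells/well; KRB buffer + 0.1% BSA + 150 μM Ro 20-1724; cpd 45 min, 37 °C, 0.1% DMSO; TR-FRET cAMP, 665 nm; 4-PL fit, normalized to DMSO (0.1%) and reference (100%) → IC50.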

GPR6 = molecular target: T2, GPR6 (Homo sapiens, UniProt P46095); assay: GPR6 antagonist functional cAMP assay (LANCE Ultra cAMP TR-FRET, CHO cells stably expressing GPR6); type: cell-based
T2 construct: expressed in transfected cells; host or cells: CHO cells
In short: as §1

[1] = CHO cells stably expressing GPR3, cAMP assay
[2] = CHO cells stably expressing GPR6, cAMP assay
[3] = CHO cells stably expressing GPR3, cAMP assay (Example 24)
[4] = CHO cells stably expressing GPR6, cAMP assay (Example 24)
[5] = procedure as described in Example 24

T2 sequence (P46095 whole entry): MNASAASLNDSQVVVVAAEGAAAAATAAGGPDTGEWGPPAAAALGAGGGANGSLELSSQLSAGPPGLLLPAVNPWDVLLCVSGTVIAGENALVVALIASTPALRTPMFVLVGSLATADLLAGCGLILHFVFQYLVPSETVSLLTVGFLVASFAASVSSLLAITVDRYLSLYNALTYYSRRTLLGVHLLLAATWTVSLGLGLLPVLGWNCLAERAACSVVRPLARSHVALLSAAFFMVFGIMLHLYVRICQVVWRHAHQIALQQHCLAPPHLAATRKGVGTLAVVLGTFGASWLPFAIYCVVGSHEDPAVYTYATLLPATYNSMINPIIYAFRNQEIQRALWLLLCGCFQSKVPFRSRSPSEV
T1 sequence (P46089 whole entry, species assumed): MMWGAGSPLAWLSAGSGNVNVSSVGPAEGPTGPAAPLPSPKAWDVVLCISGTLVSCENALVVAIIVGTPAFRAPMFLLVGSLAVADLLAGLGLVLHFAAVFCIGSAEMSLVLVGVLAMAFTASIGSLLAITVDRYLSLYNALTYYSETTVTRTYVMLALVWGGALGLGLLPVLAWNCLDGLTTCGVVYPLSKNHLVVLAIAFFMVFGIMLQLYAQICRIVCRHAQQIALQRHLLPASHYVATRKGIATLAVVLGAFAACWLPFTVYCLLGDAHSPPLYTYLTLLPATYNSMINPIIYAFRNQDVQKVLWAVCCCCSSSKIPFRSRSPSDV

| Compound | pIC50 (GPR3; [3]) | pIC50 (GPR6; [4]) | pIC50 (GPR3; procedure of Example 24) | pIC50 (GPR6; procedure of Example 24) | also measured |
| --- | --- | --- | --- | --- | --- |
| CC(C)(O)[C@@H](O)c1cc2nc(N3CCN(Cc4ccc(F)cc4F)CC3)c(-c3cnn(CF)c3)nc2cn1 (single isomer, unassigned) [Compound 599] | – | – | – | – | pIC50 (GPR3; [1]): 4.52 to 6.00; pIC50 (GPR6; [2]): 6.00 to 7.00 |
| CC(=O)N1CCc2nc(N3CCC(Oc4ccc(F)cc4F)CC3)c(-c3ccc(F)c(=O)[nH]3)nc2C1 [Compound 105, 6-{6-acetyl-2-[4-(2,4-difluorophenoxy)piperidin-1-yl]-5H,6H,7H,8H-pyrido[3,4-b]pyrazin-3-yl}-3-fluoro-1,2-dihydropyridin-2-one] | 4.52 to 6.00 | 4.52 to 6.00 | – | – | – |
| CC(C)(O)C(C)(O)c1cc2nc(-c3cnn(C(F)F)c3)c(N3CCN(Cc4ccc(F)cc4F)CC3)nc2cn1 (single isomer, unassigned) [Compound 662] | – | – | 4.52 to 6.00 | > 7.00 | – |
| Cn1cc(-c2nc3cnc(C(C)(O)C(C)(C)O)cc3nc2N2CCC(Oc3ccc(F)cc3F)CC2)cn1 (stereo not drawn) [Compound 434, 2-(2-(4-(2,4-difluorophenoxy)piperidin-1-yl)-3-(1-methyl-1H-pyrazol-4-yl)pyrido[3,4-b]pyrazin-7-yl)-3-methylbutane-2,3-diol] | 4.52 to 6.00 | 6.00 to 7.00 | – | – | – |
| CC(C)(O)C(C)(O)c1cc2nc(-c3cnn(C(F)F)c3)c(N3CCN(Cc4ccccc4F)CC3)nc2cn1 (single isomer, unassigned) [Compound 708] | – | – | 4.52 to 6.00 | 6.00 to 7.00 | – |
| CC(=O)N1CCc2nc(N3CCC(Oc4ccc(F)cc4F)CC3)c(-c3cncnc3)nc2C1 [Compound 34, 1-{2-[4-(2,4-difluorophenoxy)piperidin-1-yl]-3-(pyrimidin-5-yl)-5H,6H,7H,8H-pyrido [3,4-b]pyrazin-6-yl}ethan-1-one] | – | – | – | – | pIC50 (GPR3; [5]): 4.52 to 6.00; pIC50 (GPR6; [5]): 4.52 to 6.00 |
| Cn1cc(-c2nc3cnc([C@H](O)C(C)(C)O)cc3nc2N2CCC(=Cc3ccc(F)cc3F)CC2)cn1 (single isomer, unassigned) [Compound 720] | – | – | 4.52 to 6.00 | > 7.00 | – |
| CC(=O)N1CCc2nc(N3CCC(Oc4ccc(F)cc4F)CC3)c(-c3cncc(Cl)c3)nc2C1 [Compound 136, 1-[3-(5-chloropyridin-3-yl)-2-[4-(2,4-difluorophenoxy)piperidin-1-yl]-5H,6H,7H,8H-pyrido[3,4-b]pyrazin-6-yl]ethan-1-one] | 4.52 to 6.00 | 6.00 to 7.00 | – | – | – |
| CC(=O)N1CCc2nc(N3CCC(Oc4ccc(F)cc4F)CC3)c(-c3cnn(C4COC4)c3)nc2C1 [Compound 77, 1-{2-[4-(2,4-difluorophenoxy)piperidin-1-yl]-3-[1-(oxetan-3-yl)-1H-pyrazol-4-yl]-5H,6H,7H,8H-pyrido [3,4-b]pyrazin-6-yl}ethan-1-one] | 4.52 to 6.00 | 6.00 to 7.00 | – | – | – |
| CC(=O)N1CCc2nc(N3CCC(Oc4ccc(F)cc4F)CC3)c(C3CCS(=O)(=O)CC3)nc2C1 [Compound 218, 4-{6-acetyl-2-[4-(2,4-difluorophenoxy)piperidin-1-yl]-5H,6H,7H,8H-pyrido[3,4-b]pyrazin-3-yl}-1λ^6-thiane-1,1-dione] | 4.52 to 6.00 | 4.52 to 6.00 | – | – | – |
| CC(C)(O)C(O)c1cc2nc(-c3cnn(CF)c3)c(N3CCN(Cc4ccc(F)cc4F)CC3)nc2cn1 (single isomer, unassigned) [Compound 603] | – | – | – | – | pIC50 (GPR3; [1]): 4.52 to 6.00; pIC50 (GPR6; [2]): > 7.00 |
| COc1cncc(-c2nc3cnccc3nc2N2CC3(CC(Oc4ccc(F)cc4F)C3)C2)n1 [Compound 92, 2-(6-(2,4-difluorophenoxy)-2-azaspiro[3.3]heptan-2-yl)-3-(6-methoxypyrazin-2-yl)pyrido[3,4-b]pyrazine] | ≤ 4.52 | 4.52 to 6.00 | – | – | – |
| Cn1cc(-c2nc3cnc([C@@H](O)C(C)(C)O)cc3nc2N2CCC(Oc3ccc(F)cc3F)CC2)cn1 (single isomer, unassigned) [Compound 379, (Rel-R)-1-(2-(4-(2,4-difluorophenoxy)piperidin-1-yl)-3-(1-methyl-1H-pyrazol-4-yl)pyrido[3,4-b]pyrazin-7-yl)-2-methylpropane-1,2-diol] | 4.52 to 6.00 | 6.00 to 7.00 | – | – | – |
| CC(C)(O)C(C)(O)c1cc2nc(-c3cnn(C(F)F)c3)c(N3CCC(Oc4ccc(F)cc4F)CC3)nc2cn1 (stereo not drawn) [Compound 674, 2-{2-[1-(difluoromethyl)-4-pyrazolyl]-3-[4-(2,4-difluorophenoxy)-1-piperidyl]-1,4,6-triaza-7-naphthyl}-3-methyl-2,3-butanediol] | – | – | 4.52 to 6.00 | > 7.00 | – |
| Cn1cc(-c2nc3cnc(C4(O)COCC4O)cc3nc2N2CCC(Oc3ccc(F)cc3F)CC2)cn1 (stereo not drawn) [Compound 412, 3-{2-[4-(2,4-difluorophenoxy)piperidin-1-yl]-3-(1-methyl-1H-pyrazol-4-yl)pyrido[3,4-b]pyrazin-7-yl}oxolane-3,4-diol] | 4.52 to 6.00 | 4.52 to 6.00 | – | – | – |
| Clc1ccc(Cl)c(CN2CCN(c3nc4cnccc4nc3-c3ncc[nH]3)CC2)c1 [Compound 64, 1-[(2,5-dichlorophenyl)methyl]-4-[2-(1H-imidazol-2-yl)pyrido[3,4-b]pyrazin-3-yl]piperazine] | 6.00 to 7.00 | 6.00 to 7.00 | – | – | – |
| COc1ccnc(-c2nc3c(nc2N2CCC(Oc4ccc(F)cc4F)CC2)CCN(C(C)=O)C3)c1 [Compound 7, 1-(2-(4-(2,4-difluorophenoxy)piperidin-1-yl)-3-(4-methoxypyridin-2-yl)-7,8-dihydropyrido[3,4-b]pyrazin-6(5H)-yl)ethan-1-one] | – | – | – | – | pIC50 (GPR3; [5]): 6.00 to 7.00; pIC50 (GPR6; [5]): 4.52 to 6.00 |
| CC(=O)N1CCc2nc(N3CCN(Cc4cc(F)cc(F)c4)CC3)c(-c3cnn(C)c3)nc2C1 [Compound 353, 1-(2-{4-[(3,5-difluorophenyl)methyl]piperazin-1-yl}-3-(1-methyl-1H-pyrazol-4-yl)-5H,6H,7H,8H-pyrido[3,4-b]pyrazin-6-yl)ethan-1-one] | – | – | 4.52 to 6.00 | 4.52 to 6.00 | – |
| CC(C)(O)C(O)c1cc2nc(-c3cnn(C4CC4)c3)c(N3CCC(Oc4ccc(F)cc4F)CC3)nc2cn1 (single isomer, unassigned) [Compound 591] | – | – | – | – | pIC50 (GPR3; [1]): 4.52 to 6.00; pIC50 (GPR6; [2]): > 7.00 |
| CC(=O)N1CCc2nc(N3CCN(C(C)c4ccc(F)cc4F)CC3)c(-c3cnn(C)c3)nc2C1 (stereo not drawn) [Compound 729, 1-(2-{4-[1-(2,4-difluorophenyl)ethyl]-1-piperazinyl}-3-(1-methyl-4-pyrazolyl)-5,6,7,8-tetrahydro-1,4,6-triaza-6-naphthyl)-1-ethanone] | – | – | 4.52 to 6.00 | 4.52 to 6.00 | – |
| CCn1cc(-c2nc3c(nc2N2CCC(Oc4ccc(F)cc4F)CC2)CCN(C[C@H](O)CO)C3)cn1 [Compound 305, (2S)-3-{2-[4-(2,4-difluorophenoxy)piperidin-1-yl]-3-(1-ethyl-1H-pyrazol-4-yl)-5H,6H,7H,8H-pyrido[3,4-b]pyrazin-6-yl}propane-1,2-diol] | – | – | 4.52 to 6.00 | 6.00 to 7.00 | – |
| O=c1cc2nc(-c3cnn(CF)c3)c(N3CCN(Cc4ccc(F)cc4F)CC3)nc2c[nH]1 [Compound 796, 3-{4-[(2,4-difluorophenyl)methyl]-1-piperazinyl}-2-[1-(fluoromethyl)-4-pyrazolyl]-1,4,6-triaza-7(6H)-naphthalenone] | – | – | 4.52 to 6.00 | 6.00 to 7.00 | – |

The next lines start with results.

| pIC50 (GPR3; [3]) | pIC50 (GPR6; [4]) | pIC50 (GPR3; procedure of Example 24) | pIC50 (GPR6; procedure of Example 24) | Compound | also measured |
| --- | --- | --- | --- | --- | --- |
| 4.52 to 6.00 | 6.00 to 7.00 | – | – | COc1ncc(-c2nc3c(nc2N2CCC(Oc4ccc(F)cc4F)CC2)CCN(C(C)=O)C3)cc1F [Compound 160, 1-{2-[4-(2,4-difluorophenoxy)piperidin-1-yl]-3-(5-fluoro-6-methoxypyridin-3-yl)-5H,6H,7H,8H-pyrido[3,4-b]pyrazin-6-yl}ethan-1-one] | – |
| – | – | 4.52 to 6.00 | 6.00 to 7.00 | CC(C)(O)[C@H](O)c1cc2nc(N3CCN(Cc4cc(F)ccc4F)CC3)c(-c3cnn(CF)c3)nc2cn1 (single isomer, unassigned) [Compound 726] | – |
| 4.52 to 6.00 | 6.00 to 7.00 | – | – | CC(=O)N1CCc2nc(N3CCN(Cc4ccccc4F)CC3)c(-c3cnn(C)c3)nc2C1 [Compound 252, 1-(2-{4-[(2-fluorophenyl)methyl]piperazin-1-yl}-3-(1-methyl-1H-pyrazol-4-yl)-5H,6H,7H,8H-pyrido[3,4-b]pyrazin-6-yl)ethan-1-one] | – |
| 4.52 to 6.00 | 6.00 to 7.00 | – | – | Cn1cc(-c2nc3cnc(C[C@@H](O)CO)cc3nc2N2CCC(Oc3ccc(F)cc3F)CC2)cn1 (single isomer, unassigned) [Compound 415] | – |
| 4.52 to 6.00 | 6.00 to 7.00 | – | – | CCn1cc(-c2nc3cnc(C(O)C(C)(C)O)cc3nc2N2CCC(Oc3cc(Cl)ccc3Cl)CC2)cn1 (stereo not drawn) [Compound 441, 1-{2-[4-(2,5-dichlorophenoxy)piperidin-1-yl]-3-(1-ethyl-1H-pyrazol-4-yl)pyrido[3,4-b]pyrazin-7-yl}-2-methylpropane-1,2-diol] | – |
| 4.52 to 6.00 | 6.00 to 7.00 | – | – | COc1ccc(-c2nc3c(nc2N2CCC(Oc4ccc(F)cc4F)CC2)CCN(C(C)=O)C3)cn1 [Compound 126, 1-{2-[4-(2,4-difluorophenoxy)piperidin-1-yl]-3-(6-methoxypyridin-3-yl)-5H,6H,7H,8H-pyrido[3,4-b]pyrazin-6-yl}ethan-1-one] | – |
| 4.52 to 6.00 | 4.52 to 6.00 | – | – | COc1ccc(OC2CCN(c3nc4c(nc3-c3cnn(C)c3)CN(C(C)=O)CC4)CC2)cc1 [Compound 425, 1-{2-[4-(4-methoxyphenoxy)piperidin-1-yl]-3-(1-methyl-1H-pyrazol-4-yl)-5H,6H,7H,8H-pyrido[3,4-b]pyrazin-6-yl}ethan-1-one] | – |
| – | – | 4.52 to 6.00 | 4.52 to 6.00 | CC(=O)N1CCc2nc(N3CCN(Cc4ccc(F)c(F)c4)CC3)c(-c3cnn(C)c3)nc2C1 [Compound 321, 1-(2-{4-[(3,4-difluorophenyl)methyl]piperazin-1-yl}-3-(1-methyl-1H-pyrazol-4-yl)-5H,6H,7H,8H-pyrido[3,4-b]pyrazin-6-yl)ethan-1-one] | – |
